Test results from ChEMBL document CHEMBL1201862, “PubChem BioAssay data set” (2004).
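A five-concentration, 48-hour dose response in 96-well plates underlies each endpoint, interpolated linearly between surrounding concentrations. The concentration for 50% growth inhibition is given as GI50.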 Calls of active or inactive are those of the source. Rule as the data show it: active = GI50 up to about 1.1 µM and inactive = higher. Where a SMILES comes first, the peptide text is derived from it. The star is where a group is joined. Boc = CC(C)(C)OC(=O)*

Key:
Assay in all cases: growth of human tumour cells (NCI), 48 h
786-0 = tested on: 786-0
A498 = tested on: A498
A549 = tested on: A549
ACHN = tested on: ACHN
CAKI-1 = tested on: CAKI-1
CCRF-CEM = tested on: CCRF-CEM
COLO 205 = tested on: COLO 205
DLD-1 = tested on: DLD-1
DMS-114 = tested on: DMS-114
DMS-273 = tested on: DMS-273
EKVX = tested on: EKVX
HCC 2998 = tested on: HCC 2998
HCT-116 = tested on: HCT-116
HCT-15 = tested on: HCT-15
HL-60 = tested on: HL-60
HOP-62 = tested on: HOP-62
HOP-92 = tested on: HOP-92
HT-29 = tested on: HT-29
IGROV-1 = tested on: IGROV-1
K562 = tested on: K562
KM-20L2 = tested on: KM-20L2
KM12 = tested on: KM12
LOX IMVI = tested on: LOX IMVI
LXFL 529 = tested on: LXFL 529
M14 = tested on: M14
M19-MEL = tested on: M19-MEL
MOLT-4 = tested on: MOLT-4
Malme-3M = tested on: Malme-3M
NCI-H226 = tested on: NCI-H226
NCI-H23 = tested on: NCI-H23
NCI-H460 = tested on: NCI-H460
OVCAR-3 = tested on: OVCAR-3
OVCAR-5 = tested on: OVCAR-5
OVCAR-8 = tested on: OVCAR-8
RPMI-8226 = tested on: RPMI-8226
RXF 393 = tested on: RXF 393
RXF 631 = tested on: RXF 631
SF-268 = tested on: SF-268
SF-295 = tested on: SF-295
SF-539 = tested on: SF-539
SK-MEL-28 = tested on: SK-MEL-28
SK-MEL-2 = tested on: SK-MEL-2
SK-MEL-5 = tested on: SK-MEL-5
SK-OV-3 = tested on: SK-OV-3
SNB-19 = tested on: SNB-19
SNB-75 = tested on: SNB-75
SNB-78 = tested on: SNB-78
SW-620 = tested on: SW-620
TK-10 = tested on: TK-10
U-251 = tested on: U-251
UACC-257 = tested on: UACC-257
UACC-62 = tested on: UACC-62
UO-31 = tested on: UO-31
HOP-18 = tested on: HOP-18
NCI-H522 = tested on: NCI-H522
OVCAR-4 = tested on: OVCAR-4
SN12C = tested on: SN12C
SR = tested on: SR
XF498 = tested on: XF498

CN/N=C(/c1nc2ccc([N+](=O)[O-])cc2nc1O)C(O)c1ccc(C(O)/C(=N\NC)c2nc3ccc([N+](=O)[O-])cc3nc2O)cc1 (stereo not given)
GI50 (786-0): > 100 µM (inactive) | GI50 (A498): > 100 µM (inactive) | GI50 (A549): 64.6 µM (inactive) | GI50 (ACHN): 46.9 µM (inactive) | GI50 (CAKI-1): > 100 µM (inactive) | GI50 (CCRF-CEM): 19.8 µM (inactive) | GI50 (COLO 205): 64.9 µM (inactive) | GI50 (DLD-1): 35.6 µM (inactive) | GI50 (DMS-114): 7.16 µM (inactive) | GI50 (DMS-273): 31.4 µM (inactive) | GI50 (EKVX): > 100 µM (inactive) | GI50 (HCC 2998): 23.9 µM (inactive) | GI50 (HCT-116): > 100 µM (inactive) | GI50 (HCT-15): 29.5 µM | GI50 (HL-60): 4.37 µM (inactive) | GI50 (HOP-62): 42.2 µM (inactive) | GI50 (HOP-92): > 100 µM (inactive) | GI50 (HT-29): > 100 µM (inactive) | GI50 (IGROV-1): > 100 µM (inactive) | GI50 (K562): 32.5 µM (inactive) | GI50 (KM-20L2): 63 µM (inactive) | GI50 (KM12): > 100 µM (inactive) | GI50 (LOX IMVI): > 100 µM (inactive) | GI50 (LXFL 529): 20.7 µM (inactive) | GI50 (M14): 52.4 µM (inactive) | GI50 (M19-MEL): > 100 µM (inactive) | GI50 (MOLT-4): 48.2 µM (inactive) | GI50 (Malme-3M): > 100 µM (inactive) | GI50 (NCI-H226): > 100 µM (inactive) | GI50 (NCI-H23): > 100 µM (inactive) | GI50 (NCI-H460): 42.6 µM (inactive) | GI50 (OVCAR-3): > 100 µM (inactive) | GI50 (OVCAR-5): > 100 µM (inactive) | GI50 (OVCAR-8): > 100 µM (inactive) | GI50 (RPMI-8226): 68.1 µM (inactive) | GI50 (RXF 393): > 100 µM (inactive) | GI50 (RXF 631): 21.3 µM (inactive) | GI50 (SF-268): > 100 µM (inactive) | GI50 (SF-295): 66.4 µM (inactive) | GI50 (SF-539): 42.6 µM (inactive) | GI50 (SK-MEL-28): > 100 µM (inactive) | GI50 (SK-MEL-2): 48 µM (inactive) | GI50 (SK-MEL-5): > 100 µM (inactive) | GI50 (SK-OV-3): > 100 µM (inactive) | GI50 (SNB-19): > 100 µM (inactive) | GI50 (SNB-75): > 100 µM (inactive) | GI50 (SNB-78): > 100 µM (inactive) | GI50 (SW-620): 82.8 µM (inactive) | GI50 (TK-10): > 100 µM (inactive) | GI50 (U-251): > 100 µM (inactive) | GI50 (UACC-257): 52.6 µM (inactive) | GI50 (UACC-62): 44.9 µM (inactive) | GI50 (UO-31): 55 µM (inactive)

COC(=O)N/N=C(\C)c1sc(-c2nc(C)c(/C(C)=N/NC(=O)OC)s2)nc1C
GI50 (786-0): > 100 µM (inactive) | GI50 (A498): > 100 µM (inactive) | GI50 (A549): > 100 µM (inactive) | GI50 (ACHN): > 100 µM (inactive) | GI50 (CAKI-1): > 100 µM (inactive) | GI50 (CCRF-CEM): 79.6 µM (inactive) | GI50 (COLO 205): > 100 µM (inactive) | GI50 (DLD-1): > 100 µM (inactive) | GI50 (DMS-114): 42.2 µM (inactive) | GI50 (DMS-273): 95.9 µM (inactive) | GI50 (EKVX): > 100 µM (inactive) | GI50 (HCC 2998): > 100 µM (inactive) | GI50 (HCT-116): > 100 µM (inactive) | GI50 (HCT-15): > 100 µM | GI50 (HL-60): 39.1 µM (inactive) | GI50 (HOP-18): > 100 µM (inactive) | GI50 (HOP-62): > 100 µM (inactive) | GI50 (HOP-92): > 100 µM (inactive) | GI50 (HT-29): > 100 µM (inactive) | GI50 (IGROV-1): > 100 µM (inactive) | GI50 (K562): > 100 µM (inactive) | GI50 (KM-20L2): > 100 µM (inactive) | GI50 (KM12): > 100 µM (inactive) | GI50 (LOX IMVI): 64.1 µM (inactive) | GI50 (LXFL 529): > 100 µM (inactive) | GI50 (M14): > 100 µM (inactive) | GI50 (M19-MEL): > 100 µM (inactive) | GI50 (MOLT-4): > 100 µM (inactive) | GI50 (Malme-3M): > 100 µM (inactive) | GI50 (NCI-H226): > 100 µM (inactive) | GI50 (NCI-H23): > 100 µM (inactive) | GI50 (NCI-H460): > 100 µM (inactive) | GI50 (NCI-H522): 41.7 µM (inactive) | GI50 (OVCAR-3): > 100 µM (inactive) | GI50 (OVCAR-4): > 100 µM (inactive) | GI50 (OVCAR-5): > 100 µM (inactive) | GI50 (OVCAR-8): > 100 µM (inactive) | GI50 (RPMI-8226): > 100 µM (inactive) | GI50 (RXF 393): > 100 µM (inactive) | GI50 (RXF 631): > 100 µM (inactive) | GI50 (SF-268): > 100 µM (inactive) | GI50 (SF-295): > 100 µM (inactive) | GI50 (SF-539): > 100 µM (inactive) | GI50 (SK-MEL-28): > 100 µM (inactive) | GI50 (SK-MEL-2): > 100 µM (inactive) | GI50 (SK-MEL-5): > 100 µM (inactive) | GI50 (SK-OV-3): > 100 µM (inactive) | GI50 (SN12C): > 100 µM (inactive) | GI50 (SNB-19): > 100 µM (inactive) | GI50 (SNB-75): > 100 µM (inactive) | GI50 (SNB-78): 62.7 µM (inactive) | GI50 (SR): 20.7 µM (inactive) | GI50 (TK-10): > 100 µM (inactive) | GI50 (U-251): > 100 µM (inactive) | GI50 (UACC-257): > 100 µM (inactive) | GI50 (UACC-62): > 100 µM (inactive) | GI50 (UO-31): > 100 µM (inactive)

CSCCC(NC(=O)C(CC(C)C)NC(=O)C1CCCN1C(=O)C(Cc1ccccc1)NC(=O)C(Cc1ccccc1)NC(=O)C(CCC(=O)O)NC(=O)OC(C)(C)C)C(N)=O (stereo not given) (Boc-EFFPLM-NH2; configuration not given here)
GI50 (786-0): > 100 µM (inactive) | GI50 (A498): > 100 µM (inactive) | GI50 (CAKI-1): > 100 µM (inactive) | GI50 (CCRF-CEM): > 100 µM (inactive) | GI50 (COLO 205): > 100 µM (inactive) | GI50 (DLD-1): > 100 µM (inactive) | GI50 (DMS-114): > 100 µM (inactive) | GI50 (DMS-273): > 100 µM (inactive) | GI50 (HCC 2998): > 100 µM (inactive) | GI50 (HCT-116): > 100 µM (inactive) | GI50 (HL-60): > 100 µM (inactive) | GI50 (HOP-62): > 100 µM (inactive) | GI50 (HOP-92): > 100 µM (inactive) | GI50 (IGROV-1): > 100 µM (inactive) | GI50 (K562): > 100 µM (inactive) | GI50 (LOX IMVI): > 100 µM (inactive) | GI50 (LXFL 529): > 100 µM (inactive) | GI50 (M14): > 100 µM (inactive) | GI50 (M19-MEL): > 100 µM (inactive) | GI50 (MOLT-4): > 100 µM (inactive) | GI50 (Malme-3M): > 100 µM (inactive) | GI50 (NCI-H226): > 100 µM (inactive) | GI50 (NCI-H23): > 100 µM (inactive) | GI50 (NCI-H460): > 100 µM (inactive) | GI50 (NCI-H522): > 100 µM (inactive) | GI50 (OVCAR-4): > 100 µM (inactive) | GI50 (RPMI-8226): > 100 µM (inactive) | GI50 (RXF 631): > 100 µM (inactive) | GI50 (SF-268): > 100 µM (inactive) | GI50 (SF-539): > 100 µM (inactive) | GI50 (SK-MEL-28): > 100 µM (inactive) | GI50 (SK-MEL-2): > 100 µM (inactive) | GI50 (SK-OV-3): > 100 µM (inactive) | GI50 (SN12C): > 100 µM (inactive) | GI50 (SNB-75): > 100 µM (inactive) | GI50 (SNB-78): > 100 µM (inactive) | GI50 (SR): > 100 µM (inactive) | GI50 (UACC-62): > 100 µM (inactive) | GI50 (UO-31): > 100 µM (inactive) | GI50 (XF498): > 100 µM (inactive)
